These results are taken from PubChem BioAssay (NCI).

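Values below derive from 48-hour exposures of cells grown in 96-well plates, with endpoints linearly interpolated between the two concentrations bracketing the appropriate inhibition level. GI50 marks 50% less growth. TGI denotes the concentration required for complete inhibition of growth.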

What all share (test): NCI anticancer screen, dose series, 48 h
Experiment [1] deals with CAKI-1 renal.
The subject of experiment [2] is HCC-2998 colon.
Experiment [3] deals with HOP-62 NSCLC.
The subject of experiment [4] is NCI-H226 lung.
Experiment [5] concerns NCI-H23 lung.
Experiment [6] concerns SN12C renal.
For experiment [7], the system named is U251 CNS.
The test system of experiment [8] is CCRF-CEM leukemia.
For experiment [9], the system named is OVCAR-3 ovarian.

As for `Cc1cc(C)c([O-])c(CN(C)CCN(C)Cc2cc(C)cc(C)c2[O-])c1.O=C([O-])c1cccc(C(=O)[O-])n1.[Ti+4]`, the GI50 in experiment [1] is 3.93 µM; in experiment [2] it was 2.98 µM; in experiment [3], 2.92 µM; in experiment [4] it was 2.35 µM; in experiment [5], 2.03 µM; in experiment [6], 3.69 µM. Moreover, the GI50 in [7] was 2.92 µM. In addition, the TGI is above 100 µM in experiment [1]; above 100 µM in experiment [2]; 8.47 µM in experiment [3]; above 100 µM in [4]; 5.06 µM in experiment [5]; above 100 µM in [6]. In experiment [7], the TGI is above 100 µM.

Turning to `Cc1cc(Cl)ccc1NC(=O)CCCC(=O)C1CCCC1=O` (stereo unspecified), the TGI in experiment [1], in [8], in experiment [2], in [4], in experiment [5] and in [9] was above 100 µM each time. For the same compound, the TGI in [6] and in experiment [7] was above 100 µM throughout.

For the compound `COc1ccc([N+](=O)[O-])c2c(NCCCN(C)C)c3ccccc3nc12`, the TGI in experiment [1] was 5.7 µM; in experiment [8] it was above 100 µM; in experiment [2], 0.0727 µM; in experiment [3] it was 0.399 µM; in [4], 0.862 µM; in experiment [5], 0.402 µM. The figures for the TGI in experiment [9], in experiment [6] and in [7] were 0.442 µM, 1.43 µM and 2.05 µM, respectively.

For `O=[N+]([O-])c1cccc(C2N3CCCCC3[C@@H]3c4[nH]c5ccccc5c4CCN23)c1` (stereo partly specified), the TGI in [1] was above 100 µM; in experiment [8], 41 µM; in experiment [3], 30.2 µM; in experiment [5], 25.3 µM; in experiment [9], 32.2 µM; in experiment [6], 27.6 µM. This compound also had a TGI in [7] of 28.4 µM.

On to `CC(=O)[O-].CC(=O)[O-].[Pt+2].c1cscn1.c1cscn1`, for which the GI50 was above 100 µM in experiment [1]; 54 µM in experiment [8]; above 100 µM in experiment [2]; above 100 µM in [3]; above 100 µM in [4]; above 100 µM in experiment [5]. Also, the results for the GI50 in experiment [9], in experiment [6] and in [7] were above 100 µM, above 100 µM and 54.5 µM, respectively. Besides, the TGI in [1], in experiment [8], in experiment [2], in experiment [3], in experiment [4] and in experiment [5] was above 100 µM throughout. Besides, the TGI in [9], in experiment [6] and in experiment [7] was above 100 µM each time.

Take `COc1c2nc(CCl)[nH]c(=O)c2c(OC)c2nc(CCl)[nH]c(=O)c12`: the TGI in experiment [1], in [8], in experiment [3], in experiment [4], in experiment [5] and in experiment [9] was above 100 µM throughout. Further, the TGI in experiment [6] and in [7] was above 100 µM each time.

For `O=C1OC(CC(=O)c2ccc(Cl)c(Cl)c2)C(Cl)=C1Cl` (stereo unspecified), the TGI was above 100 µM in experiment [1]; 62.5 µM in [8]; above 100 µM in experiment [2]; above 100 µM in [3]; above 100 µM in [4]; above 100 µM in experiment [5]. For the same compound, the TGI in experiment [9], in experiment [6] and in experiment [7] was above 100 µM throughout.

As for `NNC(=O)/C(=C/c1ccc(Cl)c(Cl)c1)NC(=O)c1ccccc1`, the TGI in [8], in [2], in experiment [3], in [4], in experiment [5] and in experiment [9] was above 100 µM in each case. Besides, the TGI in experiment [6] and in [7] was above 100 µM each time.

Consider `COc1cc(Cl)c2c3c(c(C(C)=O)oc13)CCC2`, for which the TGI in experiment [1], in experiment [8], in experiment [2], in experiment [3], in [5] and in [9] was above 100 µM each time. Moreover, the TGI in experiment [6] and in [7] was above 100 µM throughout.

Regarding `COc1ccc(N2C(=O)CC(Cl)C2=O)cc1` (stereo unspecified), the TGI in [2] is 50.6 µM; in [3] it was above 100 µM; in [4], 46.4 µM; in experiment [5] it was 48.5 µM; in experiment [9], 28.7 µM; in [6], 32.7 µM. The TGI in [7] was above 100 µM.

Regarding `NC(=O)C(=Cc1ccc(C(O)P(=O)(O)O)cc1)C(N)=O` (stereo unspecified), the TGI in [1], in experiment [2], in [3], in [5], in experiment [9] and in [6] was above 100 µM throughout. Besides, the TGI in [7] is above 100 µM.

Regarding `COC(=O)c1s/c(=N\C(=S)N(C)C)n(-c2ccccc2)c1C(=O)OC`, the TGI in experiment [1], in [2], in [3], in experiment [4], in experiment [5] and in [9] was above 100 µM in each case. In addition, the TGI in [6] and in experiment [7] was above 100 µM in each case.
